Reference: patent publication US10562912B2 (C&C Research Laboratories, priority 2013, dated 2020)

Experiments:
Format in all cases: cell-based
STAT3 = molecular target: T1, STAT3 (Homo sapiens, UniProt P40763); test: STAT3 reporter gene assay (luciferase), LNCaP stable cell line (pSTAT3-TA-luc), IL-6 stimulation
T1 construct: plasmid pSTAT3-TA-luc), which contains a stably operating STAT3 promoter; endogenous in cells
Summary of the method: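 LNCaP cells stably carrying pSTAT3-TA-luc, in RPMI1640 with 3% DCC-FBS, were treated with compound and then stimulated with 10 ng/mL IL-6 for 24–48 h at 37 °C. Luciferase activity was measured in lysates. A parallel plate measured viability by CellTiter-Glo, with stimulated 0.1% DMSO wells as the positive control.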

MDA-MB-231 = test: Cell growth inhibition assay, breast cancer cell line MDA-MB-231; conditions: Homo sapiens; MDA-MB-231 breast cancer cell line, 5,000 cells/well
Experimental: The inhibitory effects of the compounds of the present invention against the growth of cancer cells were evaluated as shown below. The cancer cell lines including stomach cancer cell line (AGS), breast cancer cell lines (MDA-MB-231, MDA-MB-468, and BT-549), prostate cancer cell lines (LNCaP and DU-145), colon cancer cell line (HCT116), ovarian cancer cell line (SW626), liver cancer cell line (Hep3B), kidney cancer cell line (ACHN), lung cancer cell line (NCI-H23) and blood cancer cell lines (HEL92.1.7 and U266) were cultured under the protocol provided by each supplier. A medium supplemented with 10 ng/mL of IL-6 was used for LNCaP, a prostate cancer cell line, when treated with a drug. Each type of cells to be used in experiments were sub-cultured in a 96-well plate by counting the exact number of cells using Tali™ Image-based Cytometer (Life Technologies). In a 96-well plate, AGS, HCT116, and DU-145 were employed with 3,000 cells/well; NCI-H23, SW626, Hep3B, ACHN, BT-549, MDA-MB-231, HEL92.1.7, and U266 were employed with 5,000 cells/well; and LNCaP and MDA-MB-468 were employed with 10,000 cells/well. The cells were treated with the compounds listed in Examples which were diluted in various concentrations. Upon completion of the compounds treatment, AGS, HCT116, SW626, DU145, NCI-H23, Hep3B, ACHN, BT-549, LNCaP, HEL92.1.7, and U266 cells were cultured at 37° C. under 5% CO2 for from 72 to 96 hours, and MDA-MB-231 and MDA-MB-468 cells were cultured at 37° C. in air for from 72 to 96 hours. Subsequently, the cells were observed under microscope and drug precipitation and particular findings were investigated and recorded. And then, the 96-well plate was placed at room temperature for 30 minutes, added with 20 μL/well of CellTiter-Glo solution (Cat No. G7573, Promega) and shaken for 10 minutes, followed by being subjected to the measurement using PHERAstar™ microplate reader (BMG LABTECH) according to the supplier's general luminometer protocol. Wells where only culture liquid added without cell plating were used as a negative control, whereas wells where culture liquid containing 0.1% DMSO instead of the compounds listed in Examples were used as a positive control.

LNCaP = test: Cell growth inhibition assay, prostate cancer cell line LNCaP (medium with 10 ng/mL IL-6); conditions: Homo sapiens, medium supplemented with 10 ng/mL of IL-6, 10,000 cells/well
DU-145 = test: Cell growth inhibition assay, prostate cancer cell line DU-145; conditions: Homo sapiens, DU-145 prostate cancer cell line
Summary of the method: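 Readout was CellTiter-Glo luminescence after 72–96 h of compound exposure at 37 °C, 5% CO2. Plating density was 3,000 cells/well for DU-145 and HCT116 and 5,000 cells/well for SW626. Controls were 0.1% DMSO wells and medium-only wells.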

T1 sequence (P40763 whole entry): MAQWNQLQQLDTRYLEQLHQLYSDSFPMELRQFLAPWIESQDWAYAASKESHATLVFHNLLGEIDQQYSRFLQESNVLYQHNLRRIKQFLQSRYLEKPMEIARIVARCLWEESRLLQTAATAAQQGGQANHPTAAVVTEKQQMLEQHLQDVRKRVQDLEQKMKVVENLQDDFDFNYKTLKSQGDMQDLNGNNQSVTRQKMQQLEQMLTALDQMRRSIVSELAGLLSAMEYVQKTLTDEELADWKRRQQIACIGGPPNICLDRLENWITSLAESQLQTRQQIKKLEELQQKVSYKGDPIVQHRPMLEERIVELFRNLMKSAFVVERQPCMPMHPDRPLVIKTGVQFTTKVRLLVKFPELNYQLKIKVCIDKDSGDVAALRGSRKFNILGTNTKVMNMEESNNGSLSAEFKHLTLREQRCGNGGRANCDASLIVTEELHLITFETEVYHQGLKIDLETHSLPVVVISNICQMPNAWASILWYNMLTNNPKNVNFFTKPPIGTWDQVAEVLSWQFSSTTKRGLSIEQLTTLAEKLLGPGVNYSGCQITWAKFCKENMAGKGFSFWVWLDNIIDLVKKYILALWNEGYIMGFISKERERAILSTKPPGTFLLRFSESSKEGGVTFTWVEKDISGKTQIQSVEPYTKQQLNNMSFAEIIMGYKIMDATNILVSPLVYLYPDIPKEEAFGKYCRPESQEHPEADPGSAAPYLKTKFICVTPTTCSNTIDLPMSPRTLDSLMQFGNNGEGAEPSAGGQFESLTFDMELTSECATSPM

CS(=O)(=O)Nc1ccc2oc(C(=O)Nc3cc(Br)cc(-c4ccc(F)cc4F)c3)cc2c1 [Example 306, N-(5-bromo-2′,4′-difluoro-[1,1′-biphenyl]-3-yl)-5-(methylsulfonamido)benzofuran-2-carboxamide]
IC50 (STAT3): 0.28 µM | IC50 (MDA-MB-231): 0.37 µM | IC50 (LNCaP): 1.7 µM

C#Cc1cccc(S(=O)(=O)c2cccc(NC(=O)c3cc4ccc(NS(C)(=O)=O)cc4[nH]3)c2)c1 [Example 416]
IC50 (STAT3): 6 µM | IC50 (MDA-MB-231): 2.6 µM | IC50 (LNCaP): 9 µM

CS(=O)(=O)Nc1ccc2cc(C(=O)Nc3cccc(-c4ccc(F)cc4F)c3)sc2c1 [Example 242, N-(2′,4′-difluoro-[1,1′-biphenyl]-3-yl)-6-(methylsulfonamido)benzo[b]thiophene-2-carboxamide]
IC50 (STAT3): 0.96 µM | IC50 (MDA-MB-231): 0.54 µM | IC50 (LNCaP): 4 µM

CC(C)(c1cccc(NC(=O)c2cc3ccc(N(CC(N)=O)S(C)(=O)=O)cc3[nH]2)c1)c1cc(OCC(N)=O)cc(OC(F)(F)F)c1 [Example 437, N-(3-(2-(3-(2-amino-2-oxoethoxy)-5-(trifluoromethoxy)phenyl)propan-2-yl)phenyl)-6-(N-(2-amino-2-oxoethyl)methylsulfonamido)-1H-indole-2-carboxamide]
IC50 (STAT3): 6.3 µM | IC50 (MDA-MB-231): > 10 µM | IC50 (LNCaP): > 10 µM

CC(C)(Oc1cccc(C(C)(C)c2cc(Br)cc(NC(=O)c3cc4cc(NS(C)(=O)=O)ccc4s3)c2)c1)C(N)=O [Example 45, N-(3-(2-(3-((1-amino-2-methyl-1-oxopropan-2-yl)oxy)phenyl)propan-2-yl)-5-bromophenyl)-5-(methylsulfonamido)benzo[b]thiophene-2-carboxamide]
IC50 (STAT3): 1.3 µM | IC50 (MDA-MB-231): 0.38 µM | IC50 (LNCaP): 4.4 µM

CC(C)(c1cc(Br)cc(NC(=O)c2cc3cc(NS(C)(=O)=O)ccc3s2)c1)c1cc(OC(F)(F)F)ccc1F [Example 47, N-(3-bromo-5-(2-(2-fluoro-5-(trifluoromethoxy)phenyl)propan-2-yl)phenyl)-5-(methylsulfonamido)benzo[b]thiophene-2-carboxamide]
IC50 (STAT3): 0.008 µM | IC50 (MDA-MB-231): 0.006 µM | IC50 (LNCaP): 0.031 µM

COc1cccc(C(C)(C)c2cccc(NC(=O)c3cc4ccc(NS(C)(=O)=O)cc4[nH]3)c2)c1 [Example 12, N-(3-(2-(3-methoxyphenyl)propan-2-yl)phenyl)-6-(methylsulfonamido)-1H-indole-2-carboxamide]
IC50 (STAT3): 0.26 µM | IC50 (MDA-MB-231): 0.034 µM | IC50 (LNCaP): 1.4 µM

CC(C)(c1cccc(NC(=O)c2cc3ccc(NS(C)(=O)=O)cc3[nH]2)c1)c1cccc(OC(F)(F)F)c1 [Example 8, 6-(methylsulfonamido)-N-(3-(2-(3-(trifluoromethoxy)phenyl)propan-2-yl)phenyl)-1H-indole-2-carboxamide]
IC50 (STAT3): 0.12 µM | IC50 (MDA-MB-231): 0.018 µM | IC50 (LNCaP): 0.87 µM

CS(=O)(=O)Nc1ccc2cc(C(=O)Nc3cccc(C(F)(F)c4ccccc4)c3)[nH]c2c1 [Example 387, N-(3-(difluoro(phenyl)methyl)phenyl)-6-(methylsulfonamido)-1H-indole-2-carboxamide]
IC50 (STAT3): 2.4 µM | IC50 (MDA-MB-231): 1.17 µM | IC50 (LNCaP): 3.5 µM

CC(C)(c1cccc(NC(=O)c2cc3ccc(N(CC(N)=O)S(C)(=O)=O)cc3[nH]2)c1)c1cc(O)cc(OC(F)(F)F)c1 [Example 436, 6-(N-(2-amino-2-oxoethyl)methylsulfonamido)-N-(3-(2-(3-hydroxy-5-(trifluoromethoxy)phenyl)propan-2-yl)phenyl)-1H-indole-2-carboxamide]
IC50 (STAT3): 5.2 µM | IC50 (MDA-MB-231): 4.7 µM | IC50 (LNCaP): > 10 µM

C#Cc1cc(NC(=O)c2cc3cc(NS(C)(=O)=O)ccc3s2)cc(C(C)(C)c2ccc(F)cc2)c1 [Example 108, N-(3-ethynyl-5-(2-(4-fluorophenyl)propan-2-yl)phenyl)-5-(methylsulfonamido)benzo[b]thiophene-2-carboxamide]
IC50 (STAT3): 0.078 µM | IC50 (MDA-MB-231): 0.073 µM | IC50 (LNCaP): 0.31 µM

CS(=O)(=O)Nc1ccc2cc(C(=O)Nc3cc(C(=O)N4CCOCC4)cc(-c4ccc(F)cc4F)c3)[nH]c2c1 [Example 321, N-(2′,4′-difluoro-5-(morpholine-4-carbonyl)-[1,1′-biphenyl]-3-yl)-6-(methylsulfonamido)-1H-indole-2-carboxamide]
IC50 (STAT3): 8.2 µM | IC50 (MDA-MB-231): > 10 µM | IC50 (LNCaP): > 10 µM

CS(=O)(=O)Nc1ccc2sc(C(=O)Nc3cc(OC(F)F)cc(C4(c5ccc(F)cc5)CC4)c3)cc2c1 [Example 429, N-(3-(difluoromethoxy)-5-(1-(4-fluorophenyl)cyclopropyl)phenyl)-5-(methylsulfonamido)benzo[b]thiophene-2-carboxamide]
IC50 (STAT3): 0.19 µM | IC50 (MDA-MB-231): 0.086 µM | IC50 (LNCaP): 0.35 µM

CS(=O)(=O)Nc1ccc2cc(C(=O)Nc3cc(-c4cc[nH]n4)cc(-c4ccc(F)cc4F)c3)[nH]c2c1 [Example 351, N-(2′,4′-difluoro-5-(1H-pyrazol-3-yl)-[1,1′-biphenyl]-3-yl)-6-(methylsulfonamido)-1H-indole-2-carboxamide]
IC50 (STAT3): 0.3 µM | IC50 (MDA-MB-231): 9.9 µM | IC50 (LNCaP): > 10 µM

CC(C)(c1ccc(F)cc1)c1cccc(NC(=O)c2cc3ccc(NS(C)(=O)=O)cc3s2)c1 [Example 30, N-(3-(2-(4-fluorophenyl)propan-2-yl)phenyl)-6-(methylsulfonamido)benzo[b]thiophene-2-carboxamide]
IC50 (STAT3): 0.43 µM | IC50 (MDA-MB-231): 0.37 µM | IC50 (LNCaP): 2.9 µM

CC(C)(c1cccc(CN2CCNCC2)c1)c1cc(Br)cc(NC(=O)c2cc3ccc(NS(C)(=O)=O)cc3[nH]2)c1 [Example 119, N-(3-bromo-5-(2-(3-(piperazin-1-ylmethyl)phenyl)propan-2-yl)phenyl)-6-(methylsulfonamido)-1H-indole-2-carboxamide]
IC50 (STAT3): > 10 µM | IC50 (MDA-MB-231): 6.1 µM | IC50 (LNCaP): > 10 µM

CC(C)(c1ccc(F)cc1)c1cccc(NC(=O)c2cc3cc(NS(C)(=O)=O)ccc3o2)c1 [Example 28, N-(3-(2-(4-fluorophenyl)propan-2-yl)phenyl)-5-(methylsulfonamido)benzofuran-2-carboxamide]
IC50 (STAT3): 0.61 µM | IC50 (MDA-MB-231): 1 µM | IC50 (LNCaP): 4.7 µM

CS(=O)(=O)Nc1ccc2cc(C(=O)Nc3cc(-c4cncnc4)cc(-c4ccc(F)cc4F)c3)[nH]c2c1 [Example 360, N-(2′,4′-difluoro-5-(pyrimidin-5-yl)-[1,1′-biphenyl]-3-yl)-6-(methylsulfonamido)-1H-indole-2-carboxamide]
IC50 (STAT3): > 10 µM | IC50 (MDA-MB-231): 1.8 µM | IC50 (LNCaP): > 10 µM

Cc1ccc(Oc2cc(Cl)cc(NC(=O)c3cc4cc(NS(C)(=O)=O)c(Cl)cc4s3)c2)s1 [Example 487, 6-chloro-N-(3-chloro-5-((5-methylthiophen-2-yl)oxy)phenyl)-5-(methylsulfonamido)benzo[b]thiophene-2-carboxamide]
IC50 (STAT3): 0.059 µM | IC50 (LNCaP): 0.036 µM | IC50 (DU-145): 0.025 µM

COc1cc(F)cc(Oc2cc(Cl)cc(NC(=O)c3cc4cc(NS(C)(=O)=O)c(Cl)cc4s3)c2)c1 [Example 484, 6-chloro-N-(3-chloro-5-(3-fluoro-5-methoxyphenoxy)phenyl)-5-(methylsulfonamido)benzo[b]thiophene-2-carboxamide]
IC50 (STAT3): 0.021 µM | IC50 (LNCaP): 0.037 µM | IC50 (DU-145): 0.021 µM

CC(C)Oc1cc(OC(F)(F)F)cc(C(C)(C)c2cc(Cl)cc(NC(=O)c3cc4c(s3)CCN(NS(C)(=O)=O)C4)c2)c1 [Example 104, N-(3-chloro-5-(2-(3-isopropoxy-5-(trifluoromethoxy)phenyl)propan-2-yl)phenyl)-5-(methylsulfonamido)-4,5,6,7-tetrahydrothieno[3,2-c]pyridine-2-carboxamide]
IC50 (STAT3): 0.224 µM | IC50 (LNCaP): 0.42 µM | IC50 (DU-145): 0.58 µM

CS(=O)(=O)Nc1cc2cc(C(=O)Nc3cc(Cl)cc(Oc4nccs4)c3)sc2cc1Cl [Example 471, 6-chloro-N-(3-chloro-5-(thiazol-2-yloxy)phenyl)-5-(methylsulfonamido)benzo[b]thiophene-2-carboxamide]
IC50 (STAT3): 0.075 µM | IC50 (LNCaP): 0.11 µM | IC50 (DU-145): 0.049 µM
